This note sets out measurements from article PMC12673918, “Design, Synthesis, and Selective Antiproliferative Activity of Indolizine Derivatives as Microtubule Destabilizers” (Archiv Der Pharmazie, 2025).

Format in all cases: cell-based
Assay [1] relates to CAL‐27 (oral carcinoma). Kind of assay: Resazurin cell viability assay, CAL‐27. Particulars: Homo sapiens, CAL-27; 50 µM, 72 h, mean ± SD, n = 3; read-out: % Cellular growth inhibition (at 50 µM) CAL‐27. On the procedure:
(§1) The tongue squamous cell carcinoma cell line CAL‐27 (ATCC CRL‐2095), breast carcinoma BT‐20 (ATCC HTB‐19), gastric carcinoma HGC‐27 (BCRJ Code 0310), and normal oral fibroblast OHMF (culture of fibroblasts derived from human oral healthy mucosa, approved by the Research Ethics Committee of the University of São Paulo, Campus of Ribeirão Preto, Brazil (with protocol number 049) were cultured in DMEM medium (DMEM, Sigma‐Aldrich, St. Louis, MO, USA) supplemented with 10% fetal bovine serum and a solution of penicillin (100 U/mL) and streptomycin (100 μg/mL). The cultures were maintained in a humidified incubator with 5% CO₂ at 37°C.
(§2) Cell viability was analyzed using the resazurin assay. For this, cells were seeded in 96‐well plates (1 × 10^3 cells per well) and incubated at 37°C with 5% CO₂ overnight for cell adhesion. Subsequently, the cells were treated with different compounds (0–50 µM) for 72 h. After treatment, the medium was replaced with phenol‐free DMEM medium (Sigma‐Aldrich) containing resazurin at a concentration of 44 µM (Sigma‐Aldrich). After incubation for 4 h at 37°C, fluorescence detection was performed (excitation 530/25 nm, emission 590/35 nm) using a microplate fluorimeter (Synergy 2, Biotek). Initial cell growth inhibition assays were performed in triplicate or quadruplicate, while IC50 determinations were conducted in triplicate. Data were plotted, and IC₅₀ values were determined by nonlinear regression using GraphPad Prism software 9.0.
(§3) ^a Cell viability was assessed using the resazurin assay after 72 hours of compound treatment. Fluorescence was measured to estimate % of cellular growth inhibition at 50 µM values, based on triplicate experiments.
(§4) ^b IC50 values were determined using the same resazurin-based assay, with fluorescence measurements performed after 72 hours of treatment. These experiments were carried out in triplicate.
(Resazurin is reduced to fluorescent resorufin, in cell work by metabolically active cells.)

Assay [2] has as its target T1, human P2X4 receptor (Homo sapiens, UniProt Q99571).
T1 construct: expressed in transfected cells; host or cells: human 1321N1 astrocytoma cells
T1 sequence (Q99571 1-388): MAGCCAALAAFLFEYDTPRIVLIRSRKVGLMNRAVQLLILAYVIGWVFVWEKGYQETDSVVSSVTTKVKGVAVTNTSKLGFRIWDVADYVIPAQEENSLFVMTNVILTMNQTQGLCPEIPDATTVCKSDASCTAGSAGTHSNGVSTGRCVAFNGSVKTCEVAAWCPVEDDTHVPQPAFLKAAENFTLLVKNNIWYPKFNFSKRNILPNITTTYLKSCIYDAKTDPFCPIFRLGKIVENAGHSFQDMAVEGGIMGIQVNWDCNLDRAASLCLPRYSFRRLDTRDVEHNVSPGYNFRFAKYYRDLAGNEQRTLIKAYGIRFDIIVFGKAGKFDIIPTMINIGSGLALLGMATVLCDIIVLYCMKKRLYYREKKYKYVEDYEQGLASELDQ
Nature of the assay: Ca2+‐flux assay for the hP2X4 receptor. Particulars: read-out: % Inhibition of P2X4R at 10 µM compounds’ concentration. On the procedure: Human 1321N1 astrocytoma cells stably expressing the human P2X4 receptor (generated in‐house) were cultured in Dulbecco's Modified Eagle Medium supplemented with 9% (v/v) FCS, 1% (v/v) Penicillin/Streptomycin (10000 I.U./mL, 10 mg/mL in 0.9% NaCl) and puromycin (1 µg/mL) as a selection antibiotic at 37°C and 5% CO2. Cells were subcultured in cell culture 75 cm^2 flasks and split every 2–4 days (1:5; 1:6) once confluent.
1321N1 cells stably expressing human P2X4 receptor were seeded into black‐walled 96‐well plates (Thermo Fisher Scientific) at 2.5 × 10^4 cells/well and incubated at 37°C for 24–48 h. All test compounds were diluted in assay buffer solution (SBS: 135 mM NaCl; 5 mM KCl; 1 mM MgCl2.6 H2O; 1.8 mM CaCl2; 5.6 mM D‐Glucose; 10 mM HEPES, 0.1% (m/v) BSA, 0.05% (m/v) gelatine, 2.3 mM probenecid). The culture medium was removed, and 100 µL of 4 μM fluorescent Ca^2+ indicator Calbryte520AM in SBS was added and incubated at 37°C for 1 h. The dye solution was then removed, 100 µL of SBS solution and 50 µL of antagonist dilutions (10^–5–10^–9 M) in SBS were added, and the cells were incubated at room temperature for an extra 30 min. Finally, 50 µL of ATP (at a concentration of the previously determined EC50‐ value) was added by using FlexStation 3 Multi‐Mode Microplate Reader (Molecular Devices, San Jose, CA, USA, Software SoftMax7 Pro). The changes in intracellular Ca^2+ ion concentrations were monitored over 200 s (20 s baseline) by measuring the fluorescence signal at λ ex = 494 nm and λ em = 516 nm ([…] cut‐off). The concentration‐dependent decrease in Ca^2+‐flux, expressed as RFU, was plotted against the concentrations of the compounds.

Assay [3] concerns BT‐20 (breast carcinoma). Nature of the assay: Resazurin cell viability assay, BT‐20. The following applies: Homo sapiens, BT-20; 50 µM, 72 h, mean ± SD, n = 3; read-out: % Cellular growth inhibition (at 50 µM) BT‐20. On the procedure:
as §1, §2, §3, §4

The subject of assay [4] is HGC‐27 (gastric carcinoma). Nature of the assay: Resazurin cell viability assay, HGC‐27. Particulars: Homo sapiens, HGC-27; 50 µM, 72 h, mean ± SD, n = 3; read-out: % Cellular growth inhibition (at 50 µM) HGC‐27. On the procedure: as §1, §2, §3, §4
For assay [5], the target named is T2, human P2X7 receptor (Homo sapiens, UniProt Q99572).
T2 construct: host or cells: HEK-293
T2 sequence (Q99572 1-595): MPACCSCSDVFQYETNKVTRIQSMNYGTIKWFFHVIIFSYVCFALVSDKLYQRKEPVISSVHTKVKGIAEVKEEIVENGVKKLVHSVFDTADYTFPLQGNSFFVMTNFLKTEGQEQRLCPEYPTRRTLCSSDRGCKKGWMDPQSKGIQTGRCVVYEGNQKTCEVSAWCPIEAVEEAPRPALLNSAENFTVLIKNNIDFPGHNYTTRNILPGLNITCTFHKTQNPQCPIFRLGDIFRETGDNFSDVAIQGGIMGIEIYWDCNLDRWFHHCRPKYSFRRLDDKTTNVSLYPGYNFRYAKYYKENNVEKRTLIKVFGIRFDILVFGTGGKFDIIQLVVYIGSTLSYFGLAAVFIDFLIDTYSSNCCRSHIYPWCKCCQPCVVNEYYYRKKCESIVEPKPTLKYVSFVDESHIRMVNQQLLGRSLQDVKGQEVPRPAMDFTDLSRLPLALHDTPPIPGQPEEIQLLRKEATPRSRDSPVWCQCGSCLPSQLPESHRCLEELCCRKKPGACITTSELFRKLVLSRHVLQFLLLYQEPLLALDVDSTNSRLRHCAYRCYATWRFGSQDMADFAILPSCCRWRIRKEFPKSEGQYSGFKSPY
Nature of the assay: YO‐PRO‐1 dye uptake assay for the P2X7 receptor. The following applies: for inhibition at 10 µM: P2X7, read-out: % Inhibition of P2X7R at 10 µM compounds’ concentration. On the procedure: HEK‐293 cell lines stably expressing human P2X7 receptor (hP2X7R‐HEK‐293, B'SYS GmbH, Witterswil, Switzerland) were maintained in a 50/50 mix of Dulbecco's Modified Eagle Medium and F12 medium (DMEM/F12) supplemented with 9% (v/v) FCS, 1% (v/v) Penicillin/Streptomycin (10000 I.U./mL, 10 mg/mL in 0.9% NaCl) and G418 (100 µg/mL) at 37°C and 5% CO2. Cells were subcultured in cell culture 75 cm^2 flasks and split every 2‐4 days (1:3; 1:6; 1:10) once confluent.
HEK‐293 cell lines stably expressing human P2X7 receptor were seeded into black‐walled Nunc 96‐well optical bottom plates (Thermo Fisher Scientific) at 2.0–4.0 × 10^4 cells/well and incubated at 37°C for 24–48 h. After removing the culture medium, cells were washed with 100 µL wash buffer (280 mM Sucrose; 5.6 mM KCl; 0.5 mM CaCl2; 10 mM D‐Glucose; 10 mM HEPES; 5 mM N‐Methyl‐D‐glucamine (pH 7.4)). Then, 50 µL assay buffer (280 mM Sucrose; 6.4 mM KCl, 10 mM D‐Glucose; 10 mM HEPES; 5.0 mM N‐Methyl‐D‐glucamine (pH 7.4)) and 50 µL of antagonist dilutions (10^–5–10^–9 M) in assay buffer were added, and the cells were incubated at 37°C for 30 min. […] Finally, the uptake of YO‐PRO‐1 dye was recorded in a 9‐point‐well scan by following the fluorescence change using a FlexStation 3 Multi‐Mode Microplate Reader (Molecular Devices, San Jose, CA, USA, Software SoftMax7 Pro, endpoint protocol, well scan with reading pattern “fill scan”, λ ex = 485 nm, λ em = 535 nm). To determine the concentration‐dependent uptake inhibition by antagonists, the YO‐PRO‐1 uptake, expressed as RFU, was plotted against the concentrations of the compounds.

With `O=C(c1ccc(Cl)cc1)c1ccn2ccccc12` [Compound 6b, (4‐chlorophenyl)(indolizin‐1‐yl)methanone], the values for the inhibition at 50 µM in assay [1], in assay [3] and in assay [4] were 25 ± 0.4%, 32 ± 0.8% and 26 ± 1%, respectively. Besides, the inhibition at 10 µM in assay [2] was -3%; in assay [5] it was 10%.
For `CCOc1cn2cc(OC)ccc2c1C(=O)c1cc(OC)c(OC)c(OC)c1` [Compound 8c, (2‐ethoxy‐6‐methoxyindolizin‐1‐yl)(3,4,5‐trimethoxyphenyl)methanone] the same measures were 56 ± 4.6%, 55 ± 4.7%, 43 ± 3.5%, 10% and 3%.
`COc1ccc2c(C(=O)c3ccccc3)ccn2c1` [Compound 7a, (6‐methoxyindolizin‐1‐yl)(phenyl)methanone]: the values for the inhibition at 50 µM in assay [1], in assay [3] and in assay [4] were 20 ± 0.9%, 20 ± 0.4% and 18 ± 0.5%, respectively. In addition, the inhibition at 10 µM is -7% in assay [2] and -6% in assay [5].
For `COc1ccc(CC(=O)c2cc(OC)c(OC)c(OC)c2)nc1` [Compound 5f, 2‐(5‐methoxypyridin‐2‐yl)‐1‐(3,4,5‐trimethoxyphenyl)ethenone], the inhibition at 50 µM in assay [1] was 67 ± 2.7%; in assay [3], 52 ± 4.2%; in assay [4], 48 ± 4.9%. The inhibition at 10 µM in assay [2] is 4%; in assay [5], 5%.
In the same order, the values of `COc1ccc(C(=O)c2ccn3ccccc23)cc1` [Compound 6d, (Indolizin‐1‐yl)(4‐methoxyphenyl)methanone] are 18 ± 0.6%, 28 ± 0.5%, 24 ± 1.1%, 0% and 5%.
Take `Cc1ccc(C(=O)c2ccn3ccccc23)cc1` [Compound 6c, (Indolizin‐1‐yl)(p‐tolyl)methanone]: the inhibition at 50 µM in assay [1] worked out at 22 ± 2.6%; in assay [3], 28 ± 1.3%; in assay [4], 20 ± 0.6%. The inhibition at 10 µM is 3% in assay [2] and -8% in assay [5].
For the molecule `COc1ccc2c(C(=O)c3cc(OC)c(OC)c(OC)c3)c(-c3ccccn3)cn2c1` [Compound 8g, [6‐methoxy‐2‐(pyridin‐2‐yl)indolizin‐1‐yl](3,4,5‐trimethoxyphenyl)methanone], the inhibition at 50 µM in assay [1] was found to be 68 ± 1%; in assay [3] it was 54 ± 2.8%; in assay [4] it was 44 ± 0.4%. In addition, the inhibition at 10 µM in assay [2] is -8%; in assay [5], 1%.
As for `COc1ccc(C(=O)c2ccn3cc(OC)ccc23)cc1` [Compound 7d, (6‐methoxyindolizin‐1‐yl)(4‐methoxyphenyl)methanone], the inhibition at 50 µM amounted to 15 ± 1.1% in assay [1], 7 ± 0.9% in assay [3] and 1 ± 1% in assay [4]. For the same molecule, the inhibition at 10 µM is 8% in assay [2] and 2% in assay [5].
For `O=C(NCC12CC3CC(CC(C3)C1)C2)c1cc(CCCNCCCO)ccc1Cl` [AZD9056, reference compound], the IC50 in assay [5] (reference compound, same conditions, read-out: pIC50 at P2X7R (converted)) was 10.5 nM.
With `COc1ccc2c(C(=O)c3cc(OC)c(OC)c(OC)c3)c(-c3ccccc3)cn2c1` [Compound 8f, (6‐methoxy‐2‐phenylindolizin‐1‐yl)(3,4,5‐trimethoxyphenyl)methanone], the inhibition at 50 µM in assay [1] came to 69 ± 0.4%; in assay [3], 55 ± 1.8%; in assay [4] it was 49 ± 4%. The inhibition at 10 µM came to 4% in assay [2] and 5% in assay [5].
On to `COc1ccc2c(C(=O)c3ccc(Cl)cc3)ccn2c1` [Compound 7b, (4‐chlorophenyl)(6‐methoxyindolizin‐1‐yl)methanone], for which the inhibition at 50 µM in assay [1] turned out to be 23 ± 1%; in assay [3], 8 ± 1.3%; in assay [4], 10 ± 1.4%. The inhibition at 10 µM in assay [2] was determined as 1%; in assay [5], 4%.
